Measured values from PMC11287240 (RSC Advances, 2024).

Assays:
[1] = biological target: EeAChE (Electrophorus electricus acetylcholinesterase) (Electrophorus electricus, UniProt O42275); test: AChE inhibition assay; format: biochemical, electric eel
hBACE 1 = hBACE 1 (Homo sapiens, UniProt P56817); test: BACE 1 FRET inhibition assay; format: biochemical; conditions: human BACE 1
[2] = hBACE 1 IC50 (μM) ± SD, mean ± SD, n = 3, FRET assay

Chain of EeAChE (Electrophorus electricus acetylcholinesterase) (O42275 24-633): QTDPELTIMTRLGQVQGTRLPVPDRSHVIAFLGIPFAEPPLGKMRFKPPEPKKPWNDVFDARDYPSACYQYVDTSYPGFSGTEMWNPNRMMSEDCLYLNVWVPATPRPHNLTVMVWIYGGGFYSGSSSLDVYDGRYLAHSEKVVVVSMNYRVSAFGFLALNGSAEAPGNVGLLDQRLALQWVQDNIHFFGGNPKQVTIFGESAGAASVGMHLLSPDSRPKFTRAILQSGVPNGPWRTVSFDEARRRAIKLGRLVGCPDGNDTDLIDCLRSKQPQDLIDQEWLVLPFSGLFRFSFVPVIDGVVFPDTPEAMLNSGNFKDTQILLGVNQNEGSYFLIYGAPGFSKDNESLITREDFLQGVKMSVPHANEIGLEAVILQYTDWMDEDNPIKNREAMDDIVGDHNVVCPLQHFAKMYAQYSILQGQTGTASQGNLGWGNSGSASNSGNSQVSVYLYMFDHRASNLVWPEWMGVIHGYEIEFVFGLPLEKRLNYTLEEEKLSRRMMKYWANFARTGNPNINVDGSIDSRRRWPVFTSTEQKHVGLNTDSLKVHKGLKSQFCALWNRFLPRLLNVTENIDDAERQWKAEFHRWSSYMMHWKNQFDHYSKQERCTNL
Chain of hBACE 1 (P56817 46-501): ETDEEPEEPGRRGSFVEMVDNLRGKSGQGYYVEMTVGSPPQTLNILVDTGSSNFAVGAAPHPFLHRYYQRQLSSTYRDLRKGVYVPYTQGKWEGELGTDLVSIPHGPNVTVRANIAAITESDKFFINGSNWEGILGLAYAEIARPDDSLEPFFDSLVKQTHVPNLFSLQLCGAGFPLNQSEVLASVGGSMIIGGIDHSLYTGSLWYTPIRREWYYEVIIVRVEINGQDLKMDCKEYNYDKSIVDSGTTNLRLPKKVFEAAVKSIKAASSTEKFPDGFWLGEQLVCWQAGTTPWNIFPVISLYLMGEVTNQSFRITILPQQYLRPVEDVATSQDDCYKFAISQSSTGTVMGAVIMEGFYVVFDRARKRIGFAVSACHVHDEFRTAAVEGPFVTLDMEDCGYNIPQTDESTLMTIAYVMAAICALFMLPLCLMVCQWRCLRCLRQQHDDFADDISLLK

| SMILES | IC50 [1] [µM] | IC50 (hBACE 1; [2]) [µM] | IC50 (hBACE 1; hBACE 1 PIC50 (μM)) [µM] |
| --- | --- | --- | --- |
| [H]/N=C(/N)NN=C(/C=C/c1ccc(OC)c(OC)c1)c1cn(Cc2cc(OC)cc(OC)c2)c2ccccc12 [Compound 3b, (Z)-2-((E)-1-(1-(3,5-Dimethoxybenzyl)-1H-indol-3-yl)-3-(3,4-dimethoxyphenyl)allylidene)hydrazine-1-carboximidamide] | 22 ± 0.65 | 198 ± 3.18 | 200 |
| [H]/N=C(/N)NN=C(/C=C/c1ccc(N(C)C)cc1)c1cn(Cc2ccccc2)c2ccccc12 [Compound 1g, (Z)-2-((E)-1-(1-Benzyl-1H-indol-3-yl)-3-(4-(dimethylamino)phenyl)allylidene)hydrazine-1-carboximidamide] | 78.2 ± 2.28 | 89 ± 2.29 | 89.1 |
| [H]/N=C(/N)NN=C(/C=C/c1ccc(C(C)(C)C)cc1)c1cn(Cc2ccc(Br)cc2)c2ccccc12 [Compound 3g, (Z)-2-((E)-1-(1-(4-Bromobenzyl)-1H-indol-3-yl)-3-(4-(tert-butyl)phenyl)allylidene)hydrazine-1-carboximidamide] | 156 ± 2.62 | 178.2 ± 0.92 | 178 |
| [H]/N=C(/N)NN=C(/C=C/c1ccc(OC)c(OC)c1)c1cn(Cc2ccccc2)c2ccccc12 [Compound 1c, (Z)-2-((E)-1-(1-Benzyl-1H-indol-3-yl)-3-(3,4-dimethoxyphenyl)allylidene)hydrazine-1-carboximidamide] | 77.1 ± 1.54 | 59.51 ± 0.21 | 58.9 |
| [H]/N=C(/N)NN=C(/C=C/c1ccc(Br)cc1)c1cn(Cc2ccccc2)c2ccccc12 [Compound 1i, (Z)-2-((E)-1-(1-Benzyl-1H-indol-3-yl)-3-(4-bromophenyl)allylidene)hydrazine-1-carboximidamide] | 73.1 ± 2.07 | 97.83 ± 0.31 | 97.7 |
| [H]/N=C(/N)NN=C(/C=C/c1ccccc1)c1cn(Cc2ccccc2F)c2ccccc12 [Compound 2h, (Z)-2-((E)-1-(1-(2-Fluorobenzyl)-1H-indol-3-yl)-3-phenylallylidene)hydrazine-1-carboximidamide] | 62.86 ± 0.62 | 143.2 ± 0.21 | 145 |
| [H]/N=C(/N)NN=C(/C=C/c1ccc(C(C)(C)C)cc1)c1cn(Cc2ccccc2)c2ccccc12 [Compound 1b, (Z)-2-((E)-1-(1-Benzyl-1H-indol-3-yl)-3-(4-(tert-butyl)phenyl)allylidene)hydrazine-1-carboximidamide] | 42.9 ± 0.48 | 97.4 ± 1.36 | 97.7 |
| [H]/N=C(/N)NN=C(/C=C/c1cccc(OC)c1)c1cn(Cc2ccccc2)c2ccccc12 [Compound 1e, (Z)-2-((E)-1-(1-Benzyl-1H-indol-3-yl)-3-(3-methoxyphenyl)allylidene)hydrazine-1-carboximidamide] | 137.8 ± 0.14 | 117.2 ± 0.57 | 117 |
| [H]/N=C(/N)NN=C(/C=C/c1ccc(Cl)cc1)c1cn(Cc2ccccc2)c2ccccc12 [Compound 1q, (Z)-2-((E)-1-(1-Benzyl-1H-indol-3-yl)-3-(4-chlorophenyl)allylidene)hydrazine-1-carboximidamide] | 82.6 ± 1.92 | 16.5 ± 0.39 | 16.6 |
| [H]/N=C(/N)NN=C(/C=C/c1cccc(F)c1)c1cn(Cc2ccccc2)c2ccccc12 [Compound 1f, (Z)-2-((E)-1-(1-Benzyl-1H-indol-3-yl)-3-(3-fluorophenyl)allylidene)hydrazine-1-carboximidamide] | 67 ± 1.95 | 88.59 ± 0.32 | 89.1 |
| [H]/N=C(/N)NN=C(/C=C/c1cc(OC)ccc1OC)c1cn(Cc2ccc(CCCC)cc2)c2ccccc12 [Compound 3l, (Z)-2-((E)-1-(1-(4-Butylbenzyl)-1H-indol-3-yl)-3-(2,5-dimethoxyphenyl)allylidene)hydrazine-1-carboximidamide] | 58.4 ± 0.91 | 196 ± 3.04 | 195 |
| [H]/N=C(/N)NN=C(/C=C/c1ccc(C(C)(C)C)cc1)c1cn(Cc2ccc(-c3ccccc3)cc2)c2ccccc12 [Compound 3c, (Z)-2-((E)-1-(1-([1,1′-Biphenyl]-4-ylmethyl)-1H-indol-3-yl)-3-(4-(tert-butyl)phenyl)allylidene)hydrazine-1-carboximidamide] | 16.6 ± 1.04 | 201 ± 3.82 | 200 |
| [H]/N=C(/N)NN=C(/C=C/c1ccccc1)c1cn(Cc2ccc(Br)cc2F)c2ccccc12 [Compound 2i, (Z)-2-((E)-1-(1-(4-Bromo-2-fluorobenzyl)-1H-indol-3-yl)-3-phenylallylidene)hydrazine-1-carboximidamide] | 42.6 ± 1.58 | 185.95 ± 0.07 | 186 |
